Numbers after ± are expanded uncertainties.

Among the data in the NIST ThermoML archive (doi:10.1016/j.fluid.2006.01.014) are Normal boiling temperature values, retold here.

For this data set the following is noted: Liquid; Ebulliometric method (Recirculating still).
As for `C[Si](Cl)(Cl)Cl` [trichloromethylsilane], the Normal boiling temperature is 66.4 ± 0.2 °C. `c1ccccc1` [benzene]: the Normal boiling temperature turned out to be 80.01 ± 0.2 °C. Then `C[Si](C)(Cl)Cl` [dichlorodimethylsilane], with 70.31 ± 0.2 °C.
